Test system: MV-4-11 cells
Assay: Gene expression microarray analysis (Affymetrix PrimeView) and GSEA
Assay type: cell-based, human
Parameters: RFU PODN (11730768_x_at) / Fold change /veh PODN (11730768_x_at) / RFU LINC00158 (11744669_a_at) / Fold change /veh LINC00158 (11744669_a_at) / RFU DUSP10 (11751237_a_at) / Fold change /veh DUSP10 (11751237_a_at) / RFU ID3 (11757404_x_at) / Fold change /veh ID3 (11757404_x_at) / RFU PLEKHG5 (11737974_s_at) / Fold change /veh PLEKHG5 (11737974_s_at) / RFU LRRC4B (11730491_at) / Fold change /veh LRRC4B (11730491_at) / RFU GIMAP4 (11747438_a_at) / Fold change /veh GIMAP4 (11747438_a_at) / RFU KRT8 (11758183_x_at) / Fold change /veh KRT8 (11758183_x_at) / RFU CNN1 (11734310_a_at) / Fold change /veh CNN1 (11734310_a_at) / RFU VPS37D (11726825_at) / Fold change /veh VPS37D (11726825_at) / RFU C10orf10 (11716522_x_at) / Fold change /veh C10orf10 (11716522_x_at) / RFU KIR2DL2 /// KIR2DL4 /// KIR2DL5A /// KIR2DL5B /// KIR2DS1 /// KIR2DS2 /// KIR2DS3 /// KIR2DS4 /// KIR3DL3 /// KIR3DL3 /// KIR3DS1 (11738374_at) / Fold change /veh KIR2DL2 /// KIR2DL4 /// KIR2DL5A /// KIR2DL5B /// KIR2DS1 /// KIR2DS2 /// KIR2DS3 /// KIR2DS4 /// KIR3DL3 /// KIR3DL3 /// KIR3DS1 (11738374_at) / RFU C1QL1 (11718748_at) / Fold change /veh C1QL1 (11718748_at) / RFU TMPRSS4 (11747572_a_at) / Fold change /veh TMPRSS4 (11747572_a_at) / RFU HAMP (11756126_x_at) / Fold change /veh HAMP (11756126_x_at) / RFU RNFT2 (11725882_a_at) / Fold change /veh RNFT2 (11725882_a_at) / RFU NR4A2 (11747474_a_at) / Fold change /veh NR4A2 (11747474_a_at) / RFU ABCC12 (11746883_a_at) / Fold change /veh ABCC12 (11746883_a_at) / RFU TMEM136 (11760407_x_at) / Fold change /veh TMEM136 (11760407_x_at) / RFU CLDN22 /// WWC2 (11732394_at) / Fold change /veh CLDN22 /// WWC2 (11732394_at) / RFU HLA-DPB1 (11760878_x_at) / Fold change /veh HLA-DPB1 (11760878_x_at) / RFU SPINT1 (11716480_a_at) / Fold change /veh SPINT1 (11716480_a_at) / RFU GAP43 (11754022_s_at) / Fold change /veh GAP43 (11754022_s_at) / RFU A4GNT (11735810_at) / Fold change /veh A4GNT (11735810_at) / RFU PRB3 (11715151_x_at) / Fold change /veh PRB3 (11715151_x_at) / RFU TUBB4B (11761932_at) / Fold change /veh TUBB4B (11761932_at) / RFU CAPN14 (11732068_a_at) / Fold change /veh CAPN14 (11732068_a_at) / RFU TMCC2 (11721928_a_at) / Fold change /veh TMCC2 (11721928_a_at) / RFU IRGQ (11745062_a_at) / Fold change /veh IRGQ (11745062_a_at) / RFU FAM174B (11720279_a_at) / Fold change /veh FAM174B (11720279_a_at) / RFU TMPRSS4 (11748680_a_at) / Fold change /veh TMPRSS4 (11748680_a_at) / RFU FAM212B (11763350_a_at) / Fold change /veh FAM212B (11763350_a_at) / RFU PLEKHG5 (11743358_a_at) / Fold change /veh PLEKHG5 (11743358_a_at) / RFU ZSCAN30 (11745921_a_at) / Fold change /veh ZSCAN30 (11745921_a_at) / RFU CMKLR1 (11741424_a_at) / Fold change /veh CMKLR1 (11741424_a_at) / RFU LOC101060620 /// MAPK8IP1 (11723275_at) / Fold change /veh LOC101060620 /// MAPK8IP1 (11723275_at) / RFU SPTSSB (11747773_x_at) / Fold change /veh SPTSSB (11747773_x_at) / RFU PRSS12 (11739890_at) / Fold change /veh PRSS12 (11739890_at) / RFU BIN1 (11741810_x_at) / Fold change /veh BIN1 (11741810_x_at) / RFU WNT11 (11732464_a_at) / Fold change /veh WNT11 (11732464_a_at) / RFU C10orf10 (11716521_a_at) / Fold change /veh C10orf10 (11716521_a_at) / RFU C5orf56 (11738089_at) / Fold change /veh C5orf56 (11738089_at) / RFU CYB561 (11721691_x_at) / Fold change /veh CYB561 (11721691_x_at) / RFU ANKRD19P (11752326_a_at) / Fold change /veh ANKRD19P (11752326_a_at) / RFU OR2T12 /// OR2T33 /// OR2T8 (11738714_s_at) / Fold change /veh OR2T12 /// OR2T33 /// OR2T8 (11738714_s_at) / RFU VCAN (11748164_a_at) / Fold change /veh VCAN (11748164_a_at) / RFU JSRP1 (11732532_at) / Fold change /veh JSRP1 (11732532_at) / RFU KRTAP10-11 (11738290_x_at) / Fold change /veh KRTAP10-11 (11738290_x_at) / RFU MYO3A (11730013_a_at) / Fold change /veh MYO3A (11730013_a_at) / RFU EBF3 (11725865_a_at) / Fold change /veh EBF3 (11725865_a_at) / RFU CAMK2N1 (11719241_x_at) / Fold change /veh CAMK2N1 (11719241_x_at) / RFU C5orf56 (11738088_a_at) / Fold change /veh C5orf56 (11738088_a_at) / RFU OLFML3 (11715873_a_at) / Fold change /veh OLFML3 (11715873_a_at) / RFU LOC100653217 /// NTM (11731650_a_at) / Fold change /veh LOC100653217 /// NTM (11731650_a_at) / RFU MAPK11 (11762145_a_at) / Fold change /veh MAPK11 (11762145_a_at) / RFU FIZ1 (11724087_x_at) / Fold change /veh FIZ1 (11724087_x_at) / RFU OASL (11726364_x_at) / Fold change /veh OASL (11726364_x_at) / RFU SOX15 (11748057_x_at) / Fold change /veh SOX15 (11748057_x_at) / RFU CD79A (11719716_a_at) / Fold change /veh CD79A (11719716_a_at) / RFU HIST1H1D (11736915_at) / Fold change /veh HIST1H1D (11736915_at) / RFU CASKIN2 (11723855_a_at) / Fold change /veh CASKIN2 (11723855_a_at) / RFU LOC730098 (11760151_x_at) / Fold change /veh LOC730098 (11760151_x_at) / RFU OR4N2 (11742367_at) / Fold change /veh OR4N2 (11742367_at) / RFU PRRT2 (11749266_a_at) / Fold change /veh PRRT2 (11749266_a_at) / RFU SNX32 (11753110_a_at) / Fold change /veh SNX32 (11753110_a_at) / RFU CDHR5 (11726645_a_at) / Fold change /veh CDHR5 (11726645_a_at) / RFU RCAN1 (11760418_a_at) / Fold change /veh RCAN1 (11760418_a_at) / RFU FAM167A (11723789_a_at) / Fold change /veh FAM167A (11723789_a_at) / RFU FAM26E (11764081_at) / Fold change /veh FAM26E (11764081_at) / RFU ISYNA1 (11749810_s_at) / Fold change /veh ISYNA1 (11749810_s_at) / RFU ACY1 (11761880_at) / Fold change /veh ACY1 (11761880_at) / RFU 11764098_at / Fold change /veh 11764098_at / RFU SAMD14 (11745864_x_at) / Fold change /veh SAMD14 (11745864_x_at) / RFU NPB (11741838_a_at) / Fold change /veh NPB (11741838_a_at) / RFU TMPRSS6 (11731388_a_at) / Fold change /veh TMPRSS6 (11731388_a_at) / RFU KRTAP10-2 (11738614_at) / Fold change /veh KRTAP10-2 (11738614_at) / RFU ARHGAP8 /// PRR5-ARHGAP8 (11727945_x_at) / Fold change /veh ARHGAP8 /// PRR5-ARHGAP8 (11727945_x_at) / RFU KRTAP5-7 /// NADSYN1 (11734609_at) / Fold change /veh KRTAP5-7 /// NADSYN1 (11734609_at) / RFU RASL12 (11751679_a_at) / Fold change /veh RASL12 (11751679_a_at) / RFU CDKN2B (11736163_a_at) / Fold change /veh CDKN2B (11736163_a_at) / RFU PRF1 (11729649_at) / Fold change /veh PRF1 (11729649_at) / RFU, ZNF638 /// ZNF638-IT1 / Fold change vs veh, ZNF638 /// ZNF638-IT1 / RFU, PANK3 / Fold change vs veh, PANK3 / RFU, SH3YL1 / Fold change vs veh, SH3YL1 / RFU, ZEB2 / Fold change vs veh, ZEB2 / RFU, NRIP1 / Fold change vs veh, NRIP1 / RFU, PTTG1IP / Fold change vs veh, PTTG1IP / RFU, CAPN2 / Fold change vs veh, CAPN2 / RFU, MED14 / Fold change vs veh, MED14 / RFU, SNORA58 / Fold change vs veh, SNORA58 / RFU, C1orf63 / Fold change vs veh, C1orf63 / RFU, LRRFIP1 / Fold change vs veh, LRRFIP1 / RFU, NDUFAF7 / Fold change vs veh, NDUFAF7 / RFU, SLC12A2 / Fold change vs veh, SLC12A2 / RFU, IBTK / Fold change vs veh, IBTK / RFU, ESF1 / Fold change vs veh, ESF1 / Fold change vs veh, TMEM50B / RFU, TAOK1 / Fold change vs veh, TAOK1 / RFU, ACBD3 / Fold change vs veh, ACBD3 / RFU, TMA16 / Fold change vs veh, TMA16 / RFU, RWDD3 / Fold change vs veh, RWDD3 / RFU, BCAT1 / Fold change vs veh, BCAT1 / RFU, EDEM3 / Fold change vs veh, EDEM3 / RFU, TMEM33 / Fold change vs veh, TMEM33 / RFU, WDR75 / Fold change vs veh, WDR75 / RFU, AHCTF1 / Fold change vs veh, AHCTF1 / RFU, TFRC / Fold change vs veh, TFRC / RFU, ZDHHC17 / Fold change vs veh, ZDHHC17 / RFU, NOM1 / Fold change vs veh, NOM1 / RFU, ARL8B / Fold change vs veh, ARL8B / RFU, ZBTB11 / Fold change vs veh, ZBTB11 / RFU, TAMM41 / Fold change vs veh, TAMM41 / RFU, KIAA1704 /// LOC100996395 / Fold change vs veh, KIAA1704 /// LOC100996395 / RFU, ING1 / Fold change vs veh, ING1 / RFU, TRMT61B / Fold change vs veh, TRMT61B / RFU, FUBP3 / Fold change vs veh, FUBP3 / RFU, TP53 / Fold change vs veh, TP53 / RFU, TNKS2 / Fold change vs veh, TNKS2 / RFU, ZFP14 / Fold change vs veh, ZFP14 / RFU, ACTR2 / Fold change vs veh, ACTR2 / RFU, PPP3R1 / Fold change vs veh, PPP3R1 / RFU, PIK3R1 / Fold change vs veh, PIK3R1 / RFU, HNRNPA1 / Fold change vs veh, HNRNPA1 / RFU, RNF170 / Fold change vs veh, RNF170 / RFU, ZNF28 / Fold change vs veh, ZNF28 / RFU, RNGTT / Fold change vs veh, RNGTT / RFU, OGT / Fold change vs veh, OGT / RFU, BRD1 / Fold change vs veh, BRD1 / RFU, MARS / Fold change vs veh, MARS / RFU, ZNF655 / Fold change vs veh, ZNF655 / RFU, FAHD1 / Fold change vs veh, FAHD1 / RFU, BDP1 / Fold change vs veh, BDP1 / RFU, LRRCC1 / Fold change vs veh, LRRCC1 / RFU, ARID1A / Fold change vs veh, ARID1A / RFU, ZNF146 / Fold change vs veh, ZNF146 / RFU, ZNF330 / Fold change vs veh, ZNF330 / RFU, GPN3 / Fold change vs veh, GPN3 / RFU, C9orf123 / Fold change vs veh, C9orf123 / RFU, N4BP2L2 / Fold change vs veh, N4BP2L2 / RFU, ARFIP1 / Fold change vs veh, ARFIP1 / RFU, FAM179B / Fold change vs veh, FAM179B / RFU, BCL10 / Fold change vs veh, BCL10 / RFU, UHRF1BP1L / Fold change vs veh, UHRF1BP1L / RFU, BET1 / Fold change vs veh, BET1 / RFU, CNOT2 / Fold change vs veh, CNOT2 / RFU, ZNF268 / Fold change vs veh, ZNF268 / Fold change vs veh, ZNF507 / RFU, DGCR2 / Fold change vs veh, DGCR2 / RFU, WDSUB1 / Fold change vs veh, WDSUB1 / Fold change vs veh, HSP90B1 /// MIR3652 / RFU, ADSS / Fold change vs veh, ADSS / RFU, GK / Fold change vs veh, GK / RFU, ZNF148 / Fold change vs veh, ZNF148 / RFU, TAF9 / Fold change vs veh, TAF9 / RFU, SLC1A5 / Fold change vs veh, SLC1A5 / RFU, SLMO2 / Fold change vs veh, SLMO2 / RFU, ABCC4 / Fold change vs veh, ABCC4 / RFU, LOC101060439 /// RAP1B / Fold change vs veh, LOC101060439 /// RAP1B / RFU, RFX7 / Fold change vs veh, RFX7 / RFU, GTPBP10 / Fold change vs veh, GTPBP10 / RFU, CNEP1R1 / Fold change vs veh, CNEP1R1 / RFU, BIVM-ERCC5 /// ERCC5 / Fold change vs veh, BIVM-ERCC5 /// ERCC5 / RFU, ILF3 / Fold change vs veh, ILF3 / RFU 11762660_at / Fold change /veh 11762660_at / RFU VCAN (11757783_s_at) / Fold change /veh VCAN (11757783_s_at) / RFU DDX43 (11728927_at) / Fold change /veh DDX43 (11728927_at) / RFU KRT8 (11758188_x_at) / Fold change /veh KRT8 (11758188_x_at) / RFU NKD1 (11759106_at) / Fold change /veh NKD1 (11759106_at) / RFU SRD5A1 (11742802_a_at) / Fold change /veh SRD5A1 (11742802_a_at) / RFU TPSAB1 /// TPSB2 (11721975_s_at) / Fold change /veh TPSAB1 /// TPSB2 (11721975_s_at) / RFU GSTM3 (11746129_a_at) / Fold change /veh GSTM3 (11746129_a_at) / RFU IL23R (11737362_x_at) / Fold change /veh IL23R (11737362_x_at) / RFU TMEM51 (11727254_a_at) / Fold change /veh TMEM51 (11727254_a_at) / RFU PIWIL2 (11732686_x_at) / Fold change /veh PIWIL2 (11732686_x_at) / RFU ORM1 (11744905_x_at) / Fold change /veh ORM1 (11744905_x_at) / RFU CCDC152 (11743942_at) / Fold change /veh CCDC152 (11743942_at) / RFU ECM1 (11717891_a_at) / Fold change /veh ECM1 (11717891_a_at) / RFU IL23R (11748794_a_at) / Fold change /veh IL23R (11748794_a_at) / RFU TNFAIP8L3 (11732012_x_at) / Fold change /veh TNFAIP8L3 (11732012_x_at) / RFU MBOAT4 (11741988_at) / Fold change /veh MBOAT4 (11741988_at) / RFU 11764193_at / Fold change /veh 11764193_at / RFU TMEM53 (11763286_at) / Fold change /veh TMEM53 (11763286_at) / RFU MAGEB2 (11727129_at) / Fold change /veh MAGEB2 (11727129_at) / RFU TMEM200A (11744735_a_at) / Fold change /veh TMEM200A (11744735_a_at) / RFU CCDC152 (11751479_a_at) / Fold change /veh CCDC152 (11751479_a_at) / RFU FAM211A (11726209_a_at) / Fold change /veh FAM211A (11726209_a_at) / RFU RGS16 (11746705_a_at) / Fold change /veh RGS16 (11746705_a_at) / RFU VCAN (11755009_s_at) / Fold change /veh VCAN (11755009_s_at) / RFU RHOB (11743442_s_at) / Fold change /veh RHOB (11743442_s_at) / RFU RGS16 (11720943_a_at) / Fold change /veh RGS16 (11720943_a_at) / RFU RGS16 (11720944_at) / Fold change /veh RGS16 (11720944_at) / RFU, VPS4B / Fold change vs veh, VPS4B / RFU, CREB1 / Fold change vs veh, CREB1 / RFU, DNAJC13 / Fold change vs veh, DNAJC13 / RFU, GNAQ / Fold change vs veh, GNAQ / RFU, CDK5R1 / Fold change vs veh, CDK5R1 / RFU, ZRANB3 / Fold change vs veh, ZRANB3 / RFU, CUL4A / Fold change vs veh, CUL4A / RFU, CCNY / Fold change vs veh, CCNY / RFU, UFL1 / Fold change vs veh, UFL1 / RFU, COG3 / Fold change vs veh, COG3 / RFU, DIAPH2 / Fold change vs veh, DIAPH2 / RFU, SKA2 / Fold change vs veh, SKA2 / RFU, AFF3 / Fold change vs veh, AFF3 / RFU, LMF1 / Fold change vs veh, LMF1 / RFU, IPO11 / Fold change vs veh, IPO11 / RFU, DFFB / Fold change vs veh, DFFB / RFU, FOXP1 / Fold change vs veh, FOXP1 / RFU, CARD8 / Fold change vs veh, CARD8 / RFU, STRN3 / Fold change vs veh, STRN3 / RFU, ADK / Fold change vs veh, ADK / RFU, RASSF2 / Fold change vs veh, RASSF2 / RFU, WIPF1 / Fold change vs veh, WIPF1 / RFU, LARP1B / Fold change vs veh, LARP1B / RFU, RASA1 / Fold change vs veh, RASA1 / RFU, RB1 / Fold change vs veh, RB1 / RFU, PPFIA1 / Fold change vs veh, PPFIA1 / RFU, MAT2A / Fold change vs veh, MAT2A / RFU, CCT5 / Fold change vs veh, CCT5 / RFU, WDR92 / Fold change vs veh, WDR92 / RFU, CUX1 / Fold change vs veh, CUX1 / RFU, TTC7A / Fold change vs veh, TTC7A / RFU, TMEM135 / Fold change vs veh, TMEM135 / RFU, DEPTOR / Fold change vs veh, DEPTOR / RFU, CPM / Fold change vs veh, CPM / RFU, DNAJB6 / Fold change vs veh, DNAJB6 / RFU, CACNA2D3 / Fold change vs veh, CACNA2D3 / RFU, DTX4 / Fold change vs veh, DTX4 / RFU, TFCP2 / Fold change vs veh, TFCP2 / RFU, GMCL1 /// GMCL1P1 / Fold change vs veh, GMCL1 /// GMCL1P1 / RFU, AEBP2 / Fold change vs veh, AEBP2 / RFU, SNHG1 /// SNORD22 /// SNORD25 /// SNORD26 /// SNORD27 /// SNORD28 /// SNORD29 /// SNORD31 / Fold change vs veh, SNHG1 /// SNORD22 /// SNORD25 /// SNORD26 /// SNORD27 /// SNORD28 /// SNORD29 /// SNORD31 / Fold change (Aza/veh), C12orf56 (ProbeSet 11735607_a_at) / Fold change (ACY-1035/veh), C12orf56 (ProbeSet 11735607_a_at) / Fold change (Aza/veh), FGFR1OP (ProbeSet 11751329_s_at) / Fold change (ACY-1035/veh), FGFR1OP (ProbeSet 11751329_s_at) / Fold change (Aza/veh), VPS36 (ProbeSet 11739960_a_at) / Fold change (ACY-1035/veh), VPS36 (ProbeSet 11739960_a_at) / RFU SYPL1 (11715823_x_at) / Fold change /veh SYPL1 (11715823_x_at) / RFU IGFBP7 (11715501_s_at) / Fold change /veh IGFBP7 (11715501_s_at) / RFU REEP3 (11722064_at) / Fold change /veh REEP3 (11722064_at) / RFU IGLL1 (11728026_x_at) / Fold change /veh IGLL1 (11728026_x_at): dose or concentration left out as unconfirmed
Settings: MV-4-11 cells, 48 hours

Nc1ncn([C@@H]2O[C@H](CO)[C@@H](O)[C@H]2O)c(=O)n1 [azacitidine]
Fold change /veh RGS16 (11746705_a_at): 1.56
